From ChEMBL document CHEMBL3525960, “Role of catechol-O-methyltransferase in the disposition of luteolin in rats” (Drug Metab Dispos, 2011)

Experiments:
[1] = AUC (0 to t) in Sprague-Dawley rat at 6.5 mg/kg, iv; type: ADME, organism-based; design: dose 6.5 mg/kg, route intravenous; details: plasma
[2] = AUC (0 to infinity) in Sprague-Dawley rat at 6.5 mg/kg, iv; type: ADME, organism-based; design: time infinity, dose 6.5 mg/kg, route intravenous; details: plasma
[3] = Mean residence time (0 to t) in Sprague-Dawley rat at 6.5 mg/kg, iv; type: ADME, organism-based; design: dose 6.5 mg/kg, route intravenous; details: in vivo
[4] = Mean residence time (0 to infinity) in Sprague-Dawley rat at 6.5 mg/kg, iv; type: ADME, organism-based; design: dose 6.5 mg/kg, route intravenous; details: in vivo
[5] = Half life in Sprague-Dawley rat at 6.5 mg/kg, iv; type: ADME, organism-based; design: dose 6.5 mg/kg, route intravenous; details: in vivo
[6] = Clearance in Sprague-Dawley rat at 6.5 mg/kg, iv; type: ADME, organism-based; design: dose 6.5 mg/kg, route intravenous; details: in vivo
[7] = Volume of distribution in Sprague-Dawley rat at 6.5 mg/kg, iv; type: ADME, organism-based; design: dose 6.5 mg/kg, route intravenous; details: in vivo
[8] = AUC (0 to t) in Sprague-Dawley rat at 6.5 mg/kg, iv co-treated with COMT inhibitor entacapone; type: ADME, organism-based; design: dose 6.5 mg/kg, route intravenous; details: plasma
[9] = AUC (0 to infinity) in Sprague-Dawley rat at 6.5 mg/kg, iv co-treated with COMT inhibitor entacapone; type: ADME, organism-based; design: time infinity, dose 6.5 mg/kg, route intravenous; details: plasma
[10] = Mean residence time (0 to t) in Sprague-Dawley rat at 6.5 mg/kg, iv co-treated with COMT inhibitor entacapone; type: ADME, organism-based; design: dose 6.5 mg/kg, route intravenous; details: in vivo
[11] = Mean residence time (0 to infinity) in Sprague-Dawley rat at 6.5 mg/kg, iv co-treated with COMT inhibitor entacapone; type: ADME, organism-based; design: dose 6.5 mg/kg, route intravenous; details: in vivo
[12] = Half life in Sprague-Dawley rat at 6.5 mg/kg, iv co-treated with COMT inhibitor entacapone; type: ADME, organism-based; design: dose 6.5 mg/kg, route intravenous; details: in vivo
[13] = Clearance in Sprague-Dawley rat at 6.5 mg/kg, iv co-treated with COMT inhibitor entacapone; type: ADME, organism-based; design: dose 6.5 mg/kg, route intravenous; details: in vivo
[14] = Volume of distribution in Sprague-Dawley rat at 6.5 mg/kg, iv co-treated with COMT inhibitor entacapone; type: ADME, organism-based; design: dose 6.5 mg/kg, route intravenous; details: in vivo
[15] = Drug excretion in Sprague-Dawley rat urine at 6.5 mg/kg, iv after 24 hrs; type: ADME, organism-based; design: dose 6.5 mg/kg, route intravenous; details: read-out: Drug excretion
[16] = Drug excretion in Sprague-Dawley rat urine at 6.5 mg/kg, iv after 24 hrs co-treated with COMT inhibitor entacapone; type: ADME, organism-based; design: dose 6.5 mg/kg, route intravenous; details: read-out: Drug excretion
[17] = Drug recovery in Sprague-Dawley rat urine assessed as retention time at 6.5 mg/kg, iv by reverse-phase HPLC method; type: ADME, organism-based; design: dose 6.5 mg/kg, route intravenous; details: in vivo
Liver [18] = test: Drug metabolism in Sprague-Dawley rat liver homogenate assessed as 3'-O-methylated luteolin at 20 uM after 20 to 60 mins; type: ADME, tissue-based; details: tissue homogenate
Liver [19] = test: Drug metabolism in Sprague-Dawley rat liver homogenate assessed as 4'-O-methylated luteolin at 20 uM after 20 to 60 mins; type: ADME, tissue-based; details: tissue homogenate
Kidney [20] = test: Drug metabolism in Sprague-Dawley rat kidney homogenate assessed as 3'-O-methylated luteolin at 20 uM after 20 to 60 mins; type: ADME, tissue-based; details: tissue homogenate
Kidney [21] = test: Drug metabolism in Sprague-Dawley rat kidney homogenate assessed as 4'-O-methylated luteolin at 20 uM after 20 to 60 mins; type: ADME, tissue-based; details: tissue homogenate
Lung [22] = test: Drug metabolism in Sprague-Dawley rat lung homogenate assessed as 3'-O-methylated luteolin at 20 uM after 20 to 60 mins; type: ADME, tissue-based; details: tissue homogenate
Lung [23] = test: Drug metabolism in Sprague-Dawley rat lung homogenate assessed as 4'-O-methylated luteolin at 20 uM after 20 to 60 mins; type: ADME, tissue-based; details: tissue homogenate
Small intestine [24] = test: Drug metabolism in Sprague-Dawley rat small intestine homogenate assessed as 3'-O-methylated luteolin at 20 uM after 20 to 60 mins; type: ADME, tissue-based; details: tissue homogenate
Small intestine [25] = test: Drug metabolism in Sprague-Dawley rat small intestine homogenate assessed as 4'-O-methylated luteolin at 20 uM after 20 to 60 mins; type: ADME, tissue-based; details: tissue homogenate
[26] = Drug metabolism in Sprague-Dawley rat erythrocytes homogenate assessed as 3'-O-methylated luteolin at 20 uM after 20 to 60 mins; type: ADME, cell-based; details: erythrocyte
[27] = Drug metabolism in Sprague-Dawley rat erythrocytes homogenate assessed as 4'-O-methylated luteolin at 20 uM after 20 to 60 mins; type: ADME, cell-based; details: erythrocyte
Liver [28] = test: Drug metabolism in Sprague-Dawley rat liver homogenate assessed as 3'-O-methylated luteolin at 20 uM after 20 to 60 mins in presence of COMT inhibitor entacapone; type: ADME, tissue-based; details: tissue homogenate
Liver [29] = test: Drug metabolism in Sprague-Dawley rat liver homogenate assessed as 4'-O-methylated luteolin at 20 uM after 20 to 60 mins in presence of COMT inhibitor entacapone; type: ADME, tissue-based; details: tissue homogenate
Kidney [30] = test: Drug metabolism in Sprague-Dawley rat kidney homogenate assessed as 3'-O-methylated luteolin at 20 uM after 20 to 60 mins in presence of COMT inhibitor entacapone; type: ADME, tissue-based; details: tissue homogenate
Kidney [31] = test: Drug metabolism in Sprague-Dawley rat kidney homogenate assessed as 4'-O-methylated luteolin at 20 uM after 20 to 60 mins in presence of COMT inhibitor entacapone; type: ADME, tissue-based; details: tissue homogenate
Lung [32] = test: Drug metabolism in Sprague-Dawley rat lung homogenate assessed as 3'-O-methylated luteolin at 20 uM after 20 to 60 mins in presence of COMT inhibitor entacapone; type: ADME, tissue-based; details: tissue homogenate
Lung [33] = test: Drug metabolism in Sprague-Dawley rat lung homogenate assessed as 4'-O-methylated luteolin at 20 uM after 20 to 60 mins in presence of COMT inhibitor entacapone; type: ADME, tissue-based; details: tissue homogenate
Small intestine [34] = test: Drug metabolism in Sprague-Dawley rat small intestine homogenate assessed as 3'-O-methylated luteolin at 20 uM after 20 to 60 mins in presence of COMT inhibitor entacapone; type: ADME, tissue-based; details: tissue homogenate
Small intestine [35] = test: Drug metabolism in Sprague-Dawley rat small intestine homogenate assessed as 4'-O-methylated luteolin at 20 uM after 20 to 60 mins in presence of COMT inhibitor entacapone; type: ADME, tissue-based; details: tissue homogenate
[36] = Drug metabolism in Sprague-Dawley rat erythrocytes homogenate assessed as 3'-O-methylated luteolin at 20 uM after 20 to 60 mins in presence of COMT inhibitor entacapone; type: ADME, cell-based; details: erythrocyte
[37] = Drug metabolism in Sprague-Dawley rat erythrocytes homogenate assessed as 4'-O-methylated luteolin at 20 uM after 20 to 60 mins in presence of COMT inhibitor entacapone; type: ADME, cell-based; details: erythrocyte
[38] = Apparent permeability in human Caco2 cells; type: ADME, cell-based; details: caco-2
[39] = Drug absorption in human Caco2 cells; type: ADME, cell-based; details: caco-2

What does the source list for `O=c1cc(-c2ccc(O)c(O)c2)oc2cc(O)cc(O)c12` [LUTEOLIN]?
AUC(0-t) [1]: 7600 ng·h/mL; AUC(0-inf) [2]: 8180 ng·h/mL; MRT last [3]: 1.41 h; MRT inf [4]: 2.32 h; half-life [5]: 3.2 h; clearance [6]: 13.4 mL/min/kg; Vd [7]: 3.74 L/kg; AUC(0-t) [8]: 11400 ng·h/mL; AUC(0-inf) [9]: 12500 ng·h/mL; MRT last [10]: 1.65 h; MRT inf [11]: 2.68 h; half-life [12]: 3.31 h; clearance [13]: 8.95 mL/min/kg; Vd [14]: 2.57 L/kg; dose excreted at 24 h [15]: 5.12%; dose excreted at 24 h [16]: 7.32%; Retention_time [17]: 15.46 min; Drug metabolism (Liver [18]): metabolite_detected; Drug metabolism (Liver [19]): metabolite_detected; Drug metabolism (Kidney [20]): metabolite_detected; Drug metabolism (Kidney [21]): metabolite_detected; Drug metabolism (Lung [22]): metabolite_detected; Drug metabolism (Lung [23]): metabolite_detected; Drug metabolism (Small intestine [24]): metabolite_detected; Drug metabolism (Small intestine [25]): metabolite_detected; Drug metabolism [26]: metabolite_detected; Drug metabolism [27]: metabolite_detected; Drug metabolism (Liver [28]): metabolite_not_detected; Drug metabolism (Liver [29]): metabolite_not_detected; Drug metabolism (Kidney [30]): metabolite_not_detected; Drug metabolism (Kidney [31]): metabolite_not_detected; Drug metabolism (Lung [32]): metabolite_not_detected; Drug metabolism (Lung [33]): metabolite_not_detected; Drug metabolism (Small intestine [34]): metabolite_not_detected; Drug metabolism (Small intestine [35]): metabolite_not_detected; Drug metabolism [36]: metabolite_not_detected; Drug metabolism [37]: metabolite_not_detected; Papp [38]: 5.8 ×10⁻⁶ cm/s; Drug absorption [39]: 20%
